Experimental data as given in patent US8173668B1 (Alcon Research, Ltd., priority 2007, dated 2012).
Several values for one entry are separate records, joined by “and”; a condition that tells them apart may be missing. Identical values can stand only once.

Tests used:
[1] = tested on: conscious ocular hypertensive cynomolgus monkey eyes; test: IOP response in lasered (hypertensive) eyes of conscious cynomolgus monkeys, topical ocular; type: in vivo; settings: for % Change in IOP: Table 7, dose = 30 μg
Description: Intraocular pressure (IOP) is determined with an Alcon Pneumatonometer (Alcon Laboratories, Inc., Fort Worth, Tex.) after light corneal anesthesia with 0.1% proparacaine. Right eyes are hypertensive as a result of laser trabeculoplasty. After a baseline IOP measurement, test compound is instilled in the right eyes only of 8-10 cynomolgus monkeys. Vehicle is instilled in the right eyes of 5-6 additional animals. Subsequent IOP measurements are taken at 1, 3, and 6 hours. IOP measurements are also taken on left eyes (normotensive and untreated) at each of these time points. The percent change in IOP from baseline is determined for each animal for every IOP measurement (Sharif et al. J. Ocular Pharmacol. Ther. 17: 305-317, 2001; May et al., J Pharmacol Exp Ther. 306: 301-309, 2003; Sharif et al. Invest. Ophthalmol. Vis. Res. 47: 4001-4010, 2006). Group mean and standard error of the mean (SEM) are calculated for each time point. […] In cases where the compound of invention has poor ocular bioavailability, the compound may need to be administered intracamerally or intravitreally in order to observe the IOP-lowering efficacy.
The IOP-lowering effect was slow to develop but significant IOP reduction was observed even 3 hours post-dosing with maximum ocular hypotension observed 16-48 hours post-dosing (Tables 6-8; FIGS. 3b-5).

[2] = molecular target: T1, B2-receptors in h-CM cells (Homo sapiens, UniProt P30411); test: [Ca2+]i mobilization (FLIPR) in h-CM cells, agonist mode; type: cell-based; settings: h-CM cells, mean ± SEM
T1 construct: B2-receptor proteins in h-TM, h-CM and h-NPE cells; endogenous in cells; host or cells: human trabecular meshwork (h-TM), human ciliary muscle (h-CM) and human non-pigmented ciliary epithelial (h-NPE) cells
T1 sequence (P30411 1-391): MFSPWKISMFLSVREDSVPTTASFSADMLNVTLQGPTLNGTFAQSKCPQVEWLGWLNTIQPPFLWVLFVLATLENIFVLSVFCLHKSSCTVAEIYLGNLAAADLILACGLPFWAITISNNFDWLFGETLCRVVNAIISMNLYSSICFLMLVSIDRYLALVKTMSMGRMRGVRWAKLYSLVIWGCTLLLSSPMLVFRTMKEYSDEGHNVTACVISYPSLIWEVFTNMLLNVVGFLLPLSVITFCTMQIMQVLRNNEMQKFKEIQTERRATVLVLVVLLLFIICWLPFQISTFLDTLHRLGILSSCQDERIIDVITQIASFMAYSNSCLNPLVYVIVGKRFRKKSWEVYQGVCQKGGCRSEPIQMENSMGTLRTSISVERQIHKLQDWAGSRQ
Description: (§1) On the day of the experiment, one vial of FLIPR Calcium Assay Kit dye is re-suspended in 50 mL of a FLIPR buffer consisting of Hank's Balanced Salt Solution (HBSS), 20 mM HEPES, and 2.5 mM probenecid, pH 7.4. Cells are loaded with the calcium-sensitive dye by addition of an equal volume (50 μL) to each well of the 96-well plate and incubated with dye for 1 h at 23° C. After this time, the test compound plate and cell plate are placed in the FLIPR instrument. At the beginning of an experimental run, a signal test is performed to check the basal fluorescence signal from the dye-loaded cells and the uniformity of the signal across the plate. The basal fluorescence is adjusted between 8000-12000 counts by modifying the exposure time, the camera F-stop, or the laser power. Instrument settings for a typical assay are the following: laser power 0.3-0.6 W, camera F-stop F/2, and exposure time 0.4 sec.
(§2) Fluorescence data are collected in real-time at 1.0 sec intervals for the first 60 secs and at 6.0 sec intervals for an additional 120 secs. […] The data are then analyzed using an automated, iterative, sigmoidal curve-fitting computer program to obtain the potency and intrinsic activities of the test agents as previously described (Sharif et al. J. Pharmacol. Exp. Ther. 286: 1094-1102, 1998; Sharif et al. Invest. Ophthalmol. Vis. Sci. 39:2562-2571, 1998; Kelly et al. J. Pharmacol. Exp. Ther. 304: 238-245, 2003). The sources of materials and reagents for such assays can be found in the references cited above.

[3] = molecular target: T2, B2-receptors in h-NPE cells (Homo sapiens, UniProt P30411); test: [Ca2+]i mobilization (FLIPR) in h-NPE cells, agonist mode; type: cell-based; settings: h-NPE cells, mean ± SEM
T2 construct: B2-receptor proteins in h-TM, h-CM and h-NPE cells; endogenous in cells; host or cells: human trabecular meshwork (h-TM), human ciliary muscle (h-CM) and human non-pigmented ciliary epithelial (h-NPE) cells
T2 sequence (P30411 1-391): T1 sequence (P30411 1-391)
Description: as §1, §2

[4] = molecular target: human cloned B2-receptors (Homo sapiens, UniProt P30411); test: HTRF-based assay of endogenous IP1 production in CHO cells; type: cell-based; settings: CHO cells expressing human cloned B2-receptors, read-out: EC50, production of endogenous IP1 from PI turnover
[5] = molecular target: T3, B2-receptors in h-TM cells (Homo sapiens, UniProt P30411); test: [Ca2+]i mobilization (FLIPR) in h-TM cells, agonist mode; type: cell-based; settings: h-TM cells, mean ± SEM
T3 construct: B2-receptor proteins in h-TM, h-CM and h-NPE cells; endogenous in cells; host or cells: human trabecular meshwork (h-TM), human ciliary muscle (h-CM) and human non-pigmented ciliary epithelial (h-NPE) cells
T3 sequence (P30411 1-391): T1 sequence (P30411 1-391)
Description: as §1, §2

[6] = molecular target: T4, BK B2-Receptor in h-CM cells (Homo sapiens, UniProt P30411); test: Antagonism of FR-190997-induced [Ca2+]i mobilization in h-CM cells; type: cell-based; settings: FR-190997 as the agonist, read-out: Antagonist Potency (Ki)
T4 construct: B2-receptor proteins in h-TM, h-CM and h-NPE cells; endogenous in cells; host or cells: human trabecular meshwork (h-TM), human ciliary muscle (h-CM) and human non-pigmented ciliary epithelial (h-NPE) cells
Description: as §1, with “Instrument settings for a typical assay are the following: laser power 0.3-0.6 W, camera F-stop F/2, and exposure time 0.4 sec.” left out
as §2, with “The sources of materials and reagents for such assays can be found in the references cited above.” left out

[7] = molecular target: T5, BK B2-Receptor in h-NPE cells (Homo sapiens, UniProt P30411); test: Antagonism of FR-190997-induced [Ca2+]i mobilization in h-NPE cells; type: cell-based; settings: FR-190997 as the agonist, read-out: Antagonist Potency (Ki)
T5 construct: B2-receptor proteins in h-TM, h-CM and h-NPE cells; endogenous in cells; host or cells: human trabecular meshwork (h-TM), human ciliary muscle (h-CM) and human non-pigmented ciliary epithelial (h-NPE) cells
T5 sequence (P30411 1-391): T1 sequence (P30411 1-391)
Description: as §1, §2

[8] = read-out: Intrinsic Activity (Emax, % max relative to BK)
[9] = read-out: Potency (EC50), [Ca2+]i mobilization

Emax [2, 8] | EC50 [2, 9] | Emax [3, 8] | EC50 [3, 9] | EC50 [4] | Emax ([5]; HTM, read-out: Intrinsic Activity (Emax, % max relative to BK)) | EC50 [5, 9] | Ki [6] | Ki [7] | Structure (SMILES) | % Change in IOP ([1]; Dose 1/3 hr) | % Change in IOP ([1]; Dose 1/6 hr) | % Change in IOP ([1]; Dose 2/24 hr) | % Change in IOP ([1]; Dose 2/48 hr) | lowering of IOP ([1]; topical ocular, 0.03-600 μg/eye)
96% | 237 ± 29 nM | 86% | 709 ± 54 nM | 38 nM | 93% | 290 ± 75 nM | – | – | Cc1cc(OCc2ccccn2)c2cccc(OCc3c(Cl)ccc(N(C)C(=O)CNC(=O)/C=C/c4ccc(/C=C/c5ccncc5)nc4)c3Cl)c2n1 [Compound 1] | −12.5 ± 3.4% | −18.9 ± 6.6% | −26.6 ± 5.4% | −15.1 ± 3.9% | significant dose-dependent lowering of IOP
– | – | – | – | – | – | – | 45 nM and 71 nM | 124 nM | Cc1nc2c(OCc3c(Cl)ccc(N(C)C(=O)CNC(=O)/C=C/c4ccc(C(=O)N(C)C)cc4)c3Cl)cccn2c1Br [FR-167344] | – | – | – | – | –
– | – | – | – | – | – | – | 68 nM and 114 nM | 439 nM | CC(=O)Nc1ccc(/C=C/C(=O)NCC(=O)N(C)c2ccc(Cl)c(COc3cccc4ccc(C)nc34)c2Cl)cn1 [FR-173657] | – | – | – | – | –
